Data from patent US11116817B2, “Antimicrobial agents and compositions comprising the same” (THE CURATORS OF THE UNIVERSITY OF MISSOURI, priority 2017, dated 2021).
Like-named read-outs stand apart in the source and are kept apart here. Positions of bridges follow the written chain, without caps; N, C: chain ends. No end group written: not given here.

How the values were obtained:
[1] = tested on: chicken macrophage cell line HD11; assay: Cell cytotoxicity assay (MTT); assay type: cell-based; settings: 4, 16, 64, 256 μg/ml for 4, 12, 24, and 48 hour
Description: (§1) Chicken macrophage cell lines MQ-NCSU and HD11 were maintained in RPMI-1640 media supplemented with 10% fetal bovine serum (FBS), 2% chicken serum, 100 U/ml penicillin and 100 μg/ml streptomycin (Sigma-Aldrich) at 37° C. in humidified air with 5% CO2. CHO-K1 cells were cultured in the same media without 2% chicken serum. For CCR2-transfected CHO-K1 cells, medium was supplemented with 500 μg/ml G418 was added (Sigma-Aldrich). Murine immature dendritic cell line JAWSII (ATCC CRL-11904™) was cultured in Alpha minimum essential medium containing 4 mM L-glutamine, 1 mM sodium pyruvate, 5 ng/ml murine Granulocyte macrophage colony-stimulating factor (GM-CSF), 20% FBS, 100 U/ml penicillin and 100 μg/ml streptomycin at 37° C. in humidified air with 5% CO2. The cell cytotoxicity was determined using the MTT (3-(4,5-dimethylthiazol-2-yl)-2,5-diphenyltetrazolium bromide cell proliferation assay according to the manufacturer's instruction (Thermo Fisher Scientific). Briefly, cells (5×10^3 cells/well) were seeded in 96-well tissue culture plates, incubated overnight and treated with the analogues at concentrations of 4, 16, 64 and 256 μg/ml for 4, 12, 24 and 48 hours at 37° C. After treatment, […] 12 mM MTT solution was added to each well. The plate was incubated for 4 hours and read at 540 nm. Viability was expressed as percentage of viable cells relative to the untreated control. […]

[2] = tested on: chicken macrophage cell line MQ-NCSU; assay: Cell cytotoxicity assay (MTT); assay type: cell-based; settings: 4, 16, 64, 256 μg/ml for 4, 12, 24, and 48 hour
Description: as §1

S. aureus (ATCC 29213) [3] = assay type: cell-based
Description: (§2) The minimum inhibitory concentrations (MIC) of AvBDs (SEQ ID NOs: 5, 6, 7, 8, 9, 10, 11, 12, and 13) were determined under low salt and standard conditions according to the guidelines of the Clinical and Laboratory Standards Institute (CLSI). […] An equal volume […] of bacterial suspension was added to each well of the plate. The final bacterial concentration in the wells was 5×10^5 CFU/ml. […] To complement MIC-1s assays, the minimum bactericidal concentrations (MBC) were evaluated by sub-culturing the contents of the first two clear wells obtained in the MIC-1s assay onto LB agar plates. All assays were conducted in triplicate. The lowest peptide concentration inhibiting about, at least, or more than 99% of bacterial growth was defined as MBC-1s. The analogues were regarded as bactericidal when the MBC was determined to be no more than four times the MIC.

E. coli (ATCC 25922) = assay type: cell-based
Description: as §2

[4] = tested on: S. Typhimurium (ATCC 14028); assay type: cell-based
Description: as §2

[5] = tested on: P. aeruginosa (ATCC 27853); assay type: cell-based
Description: as §2

JAWSII cells = assay: Cell cytotoxicity assay (MTT); assay type: cell-based, mouse; settings: 4, 16, 64, 256 μg/ml for 4, 12, 24, and 48 hour
Description: The Cell Cytotoxicity Assay includes the following procedures. Mouse immature dendritic cell line, JAWSII (ATCC CRL-11904™), was cultured in Alpha minimum essential medium with ribonucleosides, deoxyribonucleosides, 4 mM L-glutamine, 1 mM sodium pyruvate, and 5 ng/ml murine Granulocyte macrophage colony-stimulating factor (GM-CSF) then supplemented with 20% FBS, 100 U/ml penicillin, and 100 μg/ml streptomycin at 37° C. in humidified air with 5% CO2. CCR-2 transfected CHO-K1 cells were cultured in RPMI-1640 supplemented with 10% FBS, 2 mM L-glutamine, 100 units/ml penicillin and streptomycin, and 500 μg/ml G418 at 37° C. in humidified air with 5% CO2. The cytotoxicity of CAMPs (SEQ ID NOs: 1, 2, 3, and 4) to JASWII and CHO-K1 cells was determined using MTT (3-(4,5-dimethylthiazol-2-yl)-2,5-diphenyltetrazolium bromide, Thermo Fisher Scientific) cell proliferation assay. Cells (5×10^3 cells/well) in 96-well microtiter plates were treated with peptides at 64, 128, 256, and 512 μg/ml for 4, 12, 24, and 48 hours at 37° C. After treatment, 20 μl of 12 mM MTT solution was added to each well and the plate was incubated for 4 hours. […] The plates were read using a spectrophotometer at 540 nm. The viability of treated cells was expressed as the percentage of viability relative to the untreated control. […]

CHO-K1 cells = assay: Cell cytotoxicity assay (MTT); assay type: cell-based, hamster; settings: 4, 16, 64, 256 μg/ml for 4, 12, 24, and 48 hour
Description: The Cell Cytotoxicity Assay includes the following procedures. Mouse immature dendritic cell line, JAWSII (ATCC CRL-11904™), was cultured in Alpha minimum essential medium with ribonucleosides, deoxyribonucleosides, 4 mM L-glutamine, 1 mM sodium pyruvate, and 5 ng/ml murine Granulocyte macrophage colony-stimulating factor (GM-CSF) then supplemented with 20% FBS, 100 U/ml penicillin, and 100 μg/ml streptomycin at 37° C. in humidified air with 5% CO2. CCR-2 transfected CHO-K1 cells were cultured in RPMI-1640 supplemented with 10% FBS, 2 mM L-glutamine, 100 units/ml penicillin and streptomycin, and 500 μg/ml G418 at 37° C. in humidified air with 5% CO2. The cytotoxicity of CAMPs (SEQ ID NOs: 1, 2, 3, and 4) to JASWII and CHO-K1 cells was determined using MTT (3-(4,5-dimethylthiazol-2-yl)-2,5-diphenyltetrazolium bromide, Thermo Fisher Scientific) cell proliferation assay. Cells (5×10^3 cells/well) in 96-well microtiter plates were treated with peptides at 64, 128, 256, and 512 μg/ml for 4, 12, 24, and 48 hours at 37° C. After treatment, 20 μl of 12 mM MTT solution was added to each well and the plate was incubated for 4 hours. The medium in each well was replaced with 100 μl of dimethyl sulfoxide (DMSO, Sigma-Aldrich) to dissolve MTT crystals. The plates were read using a spectrophotometer at 540 nm. The viability of treated cells was expressed as the percentage of viability relative to the untreated control. The experiment was performed in triplicate.
Chicken macrophage cell lines MQ-NCSU and HD11 were maintained in RPMI-1640 media supplemented with 10% fetal bovine serum (FBS), 2% chicken serum, 100 U/ml penicillin and 100 μg/ml streptomycin (Sigma-Aldrich) at 37° C. in humidified air with 5% CO2. CHO-K1 cells were cultured in the same media without 2% chicken serum. For CCR2-transfected CHO-K1 cells, medium was supplemented with 500 μg/ml G418 was added (Sigma-Aldrich). Murine immature dendritic cell line JAWSII (ATCC CRL-11904™) was cultured in Alpha minimum essential medium containing 4 mM L-glutamine, 1 mM sodium pyruvate, 5 ng/ml murine Granulocyte macrophage colony-stimulating factor (GM-CSF), 20% FBS, 100 U/ml penicillin and 100 μg/ml streptomycin at 37° C. in humidified air with 5% CO2. The cell cytotoxicity was determined using the MTT (3-(4,5-dimethylthiazol-2-yl)-2,5-diphenyltetrazolium bromide cell proliferation assay according to the manufacturer's instruction (Thermo Fisher Scientific). Briefly, cells (5×10^3 cells/well) were seeded in 96-well tissue culture plates, incubated overnight and treated with the analogues at concentrations of 4, 16, 64 and 256 μg/ml for 4, 12, 24 and 48 hours at 37° C. After treatment, […] 12 mM MTT solution was added to each well. The plate was incubated for 4 hours and read at 540 nm. Viability was expressed as percentage of viable cells relative to the untreated control. The experiments were performed in triplicate.

[6] = tested on: Gram-positive bacteria (S. aureus and MRSP strains); assay: MIC assay, Example One, pooled over Gram-positive strains; assay type: cell-based, S. pseudintermedius; settings: mean over the Gram-positive strains of Table 2
Description: (§3) The minimum inhibitory concentrations (MICs) of CAMPs (SEQ ID NOs: 1, 2, 3, and 4) were determined according to the guidelines of the Clinical and Laboratory Standards Institute (CLSI). The Muller Hinton (MH) II broth used in MIC assay was supplemented with 20-25 mg/L of calcium and 10-12.5 mg/L of magnesium. In brief, peptides were two-fold serially diluted (2 to 256 μg/ml) in a 96-well microtiter plate (Nunc™, Thermo Fisher Scientific) and an equal volume (μl) of bacterial suspension was added to each well of the plate. The final bacterial concentration in the wells was 5×10^5 CFU/ml. […] All assays were conducted in triplicate.
The Hemolytic Assay includes the following procedures. […] The supernatant was transferred to a 96-well flat-bottomed polystyrene plate (Thermo Fisher Scientific), and the amount of hemoglobin released into the supernatant was determined by measuring the absorbance with a spectrophotometer at 540 nm. Hemolytic activity was expressed as the percentage of hemolysis and calculated using the following equation: hemolysis (%)=(As−A0)/(A100−A0)×100, where As is the absorbance of the sample, A100 is the absorbance of completely lysed RBCs in 0.2% Triton X-100, and A0 is the absorbance in the complete absence of hemolysis (PBS treatment). […] Therapeutic index (T.I.) was calculated according to a previously published formula: T.I.=MHC/MICGM. […]

P. aeruginosa = assay type: cell-based
Description: as §3

S. aureus (ATCC 29213) [7] = assay type: cell-based; remark: listed apart in the source
Description: as §3

[8] = tested on: methicillin-resistant S. pseudintermedius (MRSP); assay type: cell-based
Description: as §3

[9] = standard conditions, CLSI guidelines

**Q.** For “GPHSCNHQRGLCRVGNCNPGYYLAKYCFSPVILCCKPLSPTPTKT (disulfide 5-34, 12-27, 17-35) [AvBD-12/6]”, which “effect on cell viability” value [1] is on record?
**A.** did not appear to have any effect on cell viability

**Q.** And the “effect on cell viability” value [2]?
**A.** did not appear to have any effect on cell viability

**Q.** What about the MBC-Is (S. aureus (ATCC 29213) [3]; low salt condition (5 mM NaCl)) of the same sequence?
**A.** 256 mg/L

**Q.** What about the MIC-Is (S. aureus (ATCC 29213) [3]; low salt condition (5 mM NaCl)) of the same sequence?
**A.** 256 mg/L

**Q.** What about the MIC (S. aureus (ATCC 29213) [3]; [9]) of the same sequence?
**A.** 256 mg/L

**Q.** What about the MBC-Is (E. coli (ATCC 25922); low salt condition (5 mM NaCl)) of the same sequence?
**A.** 32 mg/L

**Q.** And the MIC-Is (E. coli (ATCC 25922); low salt condition (5 mM NaCl))?
**A.** 8 mg/L

**Q.** What about the MIC (E. coli (ATCC 25922); [9]) of the same sequence?
**A.** 256 mg/L

**Q.** What about the MBC-Is ([4]; low salt condition (5 mM NaCl)) of the same sequence?
**A.** 64 mg/L

**Q.** What about the MIC-Is ([4]; low salt condition (5 mM NaCl)) of the same sequence?
**A.** 16 mg/L

**Q.** And the MIC [4, 9]?
**A.** >256 mg/L

**Q.** What about the MIC-Is ([5]; low salt condition (5 mM NaCl)) of the same sequence?
**A.** 64 mg/L

**Q.** What about the MIC [5, 9] of the same sequence?
**A.** >256 mg/L

**Q.** And the “effect on cell viability” value (JAWSII cells)?
**A.** did not appear to have any effect on cell viability

**Q.** What about the “effect on cell viability” value (CHO-K1 cells) of the same sequence?
**A.** did not appear to have any effect on cell viability

**Q.** For “SPIHACRYQRGVCIPGPCRWPYYRVGSCGSGLKSCCVRNRWA (disulfide 6-35, 13-28, 18-36) [AvBD-6]”, which MBS-Is ([5]; low salt condition (5 mM NaCl)) is on record?
**A.** 128 µg/mL

**Q.** What about the “MICAverage G+” value [6] of the same sequence?
**A.** ≥256 µg/mL

**Q.** What about the MIC (P. aeruginosa; 24 h) of the same sequence?
**A.** >256 mg/L

**Q.** What about the “MICAverage G−” value (P. aeruginosa; mean over the Gram-negative (P. aeruginosa) strains of Table 2) of the same sequence?
**A.** >256 µg/mL

**Q.** What about the MIC (S. aureus (ATCC 29213) [7]) of the same sequence?
**A.** 256 mg/L

**Q.** And the MIC ([8]; S. pseudintermedius (13164006))?
**A.** >256 mg/L

**Q.** What about the MIC ([8]; S. pseudintermedius (13193006)) of the same sequence?
**A.** >256 mg/L

**Q.** What about the MIC ([8]; S. pseudintermedius (13207007)) of the same sequence?
**A.** >256 mg/L

**Q.** What about the MIC ([8]; S. pseudintermedius (13228005)) of the same sequence?
**A.** >256 mg/L

**Q.** And the MIC ([8]; S. pseudintermedius (13267017))?
**A.** >256 mg/L

**Q.** And the MIC ([8]; S. pseudintermedius (13269013))?
**A.** >256 mg/L
